# Experimental data: US11051515B2, “3-acyl-benzamides and their use as herbicides” (Bayer Aktiengesellschaft, priority 2017, dated 2021)
# Columns and labels:
# [1] = tested on: STEME; assay: Pre-emergence action against STEME; assay type: in vivo, Stellaria media; conditions: Dosage 320 g/ha, pre-emergence
# Excerpt: (§1) Seeds of monocotyledonous and dicotyledonous weed plants and crop plants are laid out in sandy loam soil in wood-fiber pots and covered with soil. The compounds of the invention, formulated in the form of wettable powders (WP) or as emulsion concentrates (EC), are then applied to the surface of the covering soil in the form of an aqueous suspension or emulsion at a water application rate equating to […], with addition of 0.2% wetting agent. After the treatment, the pots are placed in a greenhouse and kept under good growth conditions for the trial plants. The damage to the test plants is scored visually after a test period of 3 weeks by comparison with untreated controls (herbicidal activity in percent (%): 100% activity=the plants have died, 0% activity=like control plants).
# [2] = tested on: VERPE; assay: Post-emergence action against VERPE; assay type: in vivo, Veronica persica; conditions: dosage 80 g/ha
# Description: (§2) Seeds of monocotyledonous and dicotyledonous weed and crop plants are laid out in sandy loam soil in wood-fiber pots, covered with soil and cultivated in a greenhouse under good growth conditions. 2 to 3 weeks after sowing, the test plants are treated at the one-leaf stage. The compounds of the invention, formulated in the form of wettable powders (WP) or as emulsion concentrates (EC), are then sprayed onto the green parts of the plants in the form of an aqueous suspension or emulsion at a water application rate equating to […], with addition of 0.2% wetting agent. After the test plants have been left to stand in the greenhouse under optimal growth conditions for about 3 weeks, the action of the preparations is assessed visually in comparison to untreated controls (herbicidal action in percent (%): 100% activity=the plants have died, 0% activity=like control plants). […] At the same time, inventive compounds leave Gramineae crops such as barley, wheat, rye, millet/Sorghum, corn or rice virtually undamaged when applied post-emergence, even at high active ingredient dosages. In addition, some substances are also harmless to dicotyledonous crops such as soya, cotton, oilseed rape, sugar beet or potatoes. Some of the compounds according to the invention have high selectivity and are therefore suitable for controlling unwanted vegetation in agricultural crops by the post-emergence method. The data of Tables B18 to B34 below illustrate, in an exemplary manner, the […] herbicidal action of the compounds according to the invention, the herbicidal activity being stated in percent.
# [3] = tested on: AMARE; assay: Pre-emergence action against AMARE; assay type: in vivo, Amaranthus retroflexus; conditions: pre-emergence, dosage 320 g/ha, scored visually after 3 weeks vs untreated controls
# Excerpt: as §1
# [4] = tested on: VIOTR; assay: Post-emergence action against VIOTR; assay type: in vivo, Viola tricolor; conditions: post-emergence, dosage 80 g/ha
# Description: as §2
# [5] = tested on: VERPE; assay: Pre-emergence action against VERPE; assay type: in vivo, Veronica persica; conditions: Dosage 320 g/ha, pre-emergence
# Excerpt: as §1
# [6] = tested on: STEME; assay: Post-emergence action against STEME; assay type: in vivo, Stellaria media; conditions: post-emergence, dosage 80 g/ha
# Description: as §2
# [7] = tested on: MATIN; assay: Post-emergence action against MATIN; assay type: in vivo, Matricaria inodora; conditions: post-emergence, dosage 80 g/ha, visual assessment about 3 weeks after treatment vs untreated controls
# Description: as §2
# [8] = tested on: AMARE; assay: Post-emergence action against AMARE; assay type: in vivo, Amaranthus retroflexus; conditions: post-emergence, dosage 80 g/ha, visual assessment about 3 weeks after treatment vs untreated controls
# Description: as §2
# [9] = tested on: ECHCG; assay: Post-emergence action against ECHCG; assay type: in vivo, Echinochloa crus-galli; conditions: post-emergence, dosage 80 g/ha, visual assessment about 3 weeks after treatment vs untreated controls
# Description: as §2
# [10] = tested on: ECHCG; assay: Pre-emergence action against ECHCG; assay type: in vivo, Echinochloa crus-galli; conditions: pre-emergence, dosage 320 g/ha, scored visually after 3 weeks vs untreated controls
# Excerpt: as §1
# [11] = tested on: MATIN; assay: Pre-emergence action against MATIN; assay type: in vivo, Matricaria inodora; conditions: Dosage 320 g/ha, pre-emergence
# Excerpt: as §1
# [12] = tested on: ABUTH; assay: Pre-emergence action against ABUTH; assay type: in vivo, Abutilon theophrasti; conditions: pre-emergence, dosage 320 g/ha, scored visually after 3 weeks vs untreated controls
# Excerpt: as §1
# [13] = tested on: PHBPU; assay: Post-emergence action against PHBPU; assay type: in vivo, Pharbitis purpurea; conditions: post-emergence, dosage 80 g/ha
# Description: as §2
# [14] = tested on: ALOMY; assay: Pre-emergence action against ALOMY; assay type: in vivo, Alopecurus myosuroides; conditions: dosage 320 g/ha; pre-emergence; scored visually after 3 weeks vs untreated controls; 100% = plants have died, 0% = like control plants
# Excerpt: as §1
# [15] = tested on: PHBPU; assay: Pre-emergence action against PHBPU; assay type: in vivo, Pharbitis purpurea; conditions: Dosage 320 g/ha, pre-emergence
# Excerpt: as §1
# [16] = tested on: AVEFA; assay: Pre-emergence action against AVEFA; assay type: in vivo, Avena fatua; conditions: dosage 320 g/ha, scored visually after 3 weeks vs untreated controls
# Excerpt: as §1
# [17] = tested on: ABUTH; assay: Post-emergence action against ABUTH; assay type: in vivo, Abutilon theophrasti; conditions: post-emergence, dosage 80 g/ha, visual assessment about 3 weeks after treatment vs untreated controls
# Description: as §2
# [18] = tested on: VIOTR; assay: Pre-emergence action against VIOTR; assay type: in vivo, Viola tricolor; conditions: Dosage 320 g/ha, pre-emergence
# Excerpt: as §1
# [19] = tested on: SETVI; assay: Pre-emergence action against SETVI; assay type: in vivo, Setaria viridis; conditions: pre-emergence, dosage 320 g/ha, scored visually after 3 weeks vs untreated controls
# Excerpt: as §1
# [20] = tested on: CYPES; assay: Pre-emergence action against CYPES; assay type: in vivo, Cyperus esculentus; conditions: pre-emergence, dosage 320 g/ha, scored visually after 3 weeks vs untreated controls
# Excerpt: as §1
# [21] = tested on: SETVI; assay: Post-emergence action against SETVI; assay type: in vivo, Setaria viridis; conditions: post-emergence, dosage 80 g/ha, visual assessment about 3 weeks after treatment vs untreated controls
# Description: as §2
Structure (SMILES),Pre-emergence action against STEME [1] [%],Pre-emergence action against AMARE (herbicidal activity) [3] [%],Pre-emergence action against ABUTH (herbicidal activity) [12] [%],Post-emergence action against VIOTR [4],Pre-emergence action against VERPE [5] [%],Post-emergence action against STEME [6],Post-emergence action against MATIN (herbicidal action in percent) [7] [%],Post-emergence action against PHBPU [13],Pre-emergence action against ALOMY (herbicidal activity in percent) [14] [%],Pre-emergence action against PHBPU [15] [%],Pre-emergence action against MATIN [11] [%],Post-emergence action against AMARE (herbicidal action in percent) [8] [%],Post-emergence action against ABUTH (herbicidal action in percent) [17] [%],Pre-emergence action against VIOTR [18] [%],Pre-emergence action against ECHCG (herbicidal activity) [10] [%],Post-emergence action against ECHCG (herbicidal action in percent) [9] [%],also measured
CCC(=O)c1c(C)ccc(C(=O)Nc2nnnn2C)c1Cl [1-135],,,,,,,,,,,,,,,,,"pest or weed control at 320 g/ha ([1]; Stellaria media, 504 h): 90%; pest or weed control at 80 g/ha ([2]; Veronica persica, 504 h): 80%; pest or weed control at 320 g/ha ([3]; Amaranthus retroflexus, 504 h, read-out: Pre-emergence action against AMARE (herbicidal activity)): 100%; pest or weed control at 80 g/ha ([4]; Viola tricolor, 504 h): 90%; pest or weed control at 320 g/ha ([5]; Veronica persica, 504 h): 90%; pest or weed control at 80 g/ha ([6]; Stellaria media, 504 h): 100%; pest or weed control at 80 g/ha ([7]; Tripleurospermum inodorum, 504 h, read-out: Post-emergence action against MATIN (herbicidal action in percent)): 90%; pest or weed control at 80 g/ha ([8]; Amaranthus retroflexus, 504 h, read-out: Post-emergence action against AMARE (herbicidal action in percent)): 90%; pest or weed control at 80 g/ha ([9]; Echinochloa crus-galli, 504 h, read-out: Post-emergence action against ECHCG (herbicidal action in percent)): 80%; pest or weed control at 320 g/ha ([10]; Echinochloa crus-galli, 504 h, read-out: Pre-emergence action against ECHCG (herbicidal activity)): 90%; pest or weed control at 320 g/ha ([11]; Tripleurospermum inodorum, 504 h): 90%"
CCn1nnnc1NC(=O)c1ccc(C)c(C(=O)C2CC2)c1Cl [2-136],90,100,90,80,90,80,90,90,90,100,100,,,,,,
CCn1nnnc1NC(=O)c1ccc(C(F)(F)F)c(C(=O)C2CCCCC2)c1SC [2-285],100,100,100,,90,80,80,,,,90,90,90,100,80,,Pre-emergence action against AVEFA (herbicidal activity) [16]: 80%
CCn1nnnc1NC(=O)c1ccc(C(F)(F)F)c(C(=O)c2cc(F)cc(F)c2)c1Cl [2-286],,100,80,80,,,,90,,80,,90,80,100,,80,
CCCn1nnnc1NC(=O)c1ccc(C)c(C(=O)C2CC2)c1C [3-3],90,100,80,,,80,,,90,,100,100,,,100,100,"SETVI (Table B8, pre-emergence herbicidal activity) [19]: 90%; Pre-emergence action against CYPES (herbicidal activity) [20]: 90%"
CCCn1nnnc1NC(=O)c1ccc(C(F)(F)F)c(C(=O)CC)c1C [3-15],100,100,100,90,100,100,100,90,80,80,100,90,90,100,100,100,"Post-emergence action against VERPE [2]: 90; SETVI (Table B8, pre-emergence herbicidal activity) [19]: 100%; Post-emergence action against SETVI (herbicidal action in percent) [21]: 100%"
CCCn1nnnc1NC(=O)c1ccc(C)c(C(=O)C2CC2)c1Cl [3-136],,90,80,80,,100,90,90,,90,90,80,,,80,80,Post-emergence action against VERPE [2]: 80
